Test results as given in patent US9676732B2, “Ethynyl derivatives” (Hoffmann-La Roche Inc., priority 2013, dated 2017).

Target: human mGlu4 receptor (Homo sapiens (Human), UniProt Q14833)
Assay: Ca2+ mobilization in vitro assay on recombinant human mGlu4 expressed in HEK293 cells (mGlu4 PAM)
Type: cell-based
Settings: for EC50: HEK293 cells stably expressing human mGlu4, L-AP4 added at EC20, read-out: EC50 (nM) mGlu4PAM; for Eff. (%): maximal response in % of the maximal stimulatory effect obtained with saturating concentrations of L-AP4
Procedure: Determination of EC50 Values Using a Ca2+ Mobilization In Vitro Assay on Recombinant Human mGlu4 Expressed in HEK293 Cells:
A monoclonal HEK-293 cell line stably transfected with a cDNA encoding for the human mGlu4 receptor was generated; for the work with mGlu4 Positive Allosteric Modulators (PAMs), a cell line with low receptor expression levels and low constitutive receptor activity was selected to allow the differentiation of agonistic versus PAM activity. Cells were cultured according to standard protocols (Freshney, 2000) in Dulbecco's Modified Eagle Medium with high glucose supplemented with 1 mM glutamine, 10% (vol/vol) heat-inactivated bovine calf serum, Penicillin/Streptomycin, 50 μg/ml hygromycin and 15 μg/ml blasticidin (all cell culture reagents and antibiotics from Invitrogen, Basel, Switzerland).
About 24 hrs before an experiment, 5×10^4 cells/well were seeded in poly-D-lysine coated, black/clear-bottomed 96-well plates. The cells were loaded with 2.5 μM Fluo-4AM in loading buffer (1×HBSS, 20 mM HEPES) for 1 hr at 37° C. and washed five times with loading buffer. The cells were transferred into a Functional Drug Screening System 7000 (Hamamatsu, Paris, France), and 11 half logarithmic serial dilutions of test compound at 37° C. were added and the cells were incubated for 10-30 min. with on-line recording of fluorescence. Following this pre-incubation step, the agonist (2S)-2-amino-4-phosphonobutanoic acid (L-AP4) was added to the cells at a concentration corresponding to EC20 with on-line recording of fluorescence; in order to account for day-to-day variations in the responsiveness of cells, the EC20 of L-AP4 was determined immediately ahead of each experiment by recording of a full dose-response curve of L-AP4.
Responses were measured as peak increase in fluorescence minus basal (i.e. fluorescence without addition of L-AP4), normalized to the maximal stimulatory effect obtained with saturating concentrations of L-AP4. Graphs were plotted with the % maximal stimulatory using XLfit, a curve fitting program that iteratively plots the data using Levenburg Marquardt algorithm. The single site competition analysis equation used was y=A+((B−A)/(1+((x/C)D))), where y is the % maximal stimulatory effect, A is the minimum y, B is the maximum y, C is the EC50, x is the log 10 of the concentration of the competing compound and D is the slope of the curve (the Hill Coefficient). From these curves the EC50 (drug concentration at which 50% of the maximal receptor activation was achieved), the Hill coefficient as well as the maximal response in % of the maximal stimulatory effect obtained with saturating concentrations of L-AP4 were calculated (see FIG. 1).
A depression of the signal observed after addition of the EC20 concentration of L-AP4 was indicative of an inhibitory activity of the test compound. • FIG. 1: Illustration of the experimental outline for mGlu4 PAM Ca2+ mobilization screening assay and the determination of EC50 and % Emax values.

Chain of human mGlu4 receptor (Q14833 33-912): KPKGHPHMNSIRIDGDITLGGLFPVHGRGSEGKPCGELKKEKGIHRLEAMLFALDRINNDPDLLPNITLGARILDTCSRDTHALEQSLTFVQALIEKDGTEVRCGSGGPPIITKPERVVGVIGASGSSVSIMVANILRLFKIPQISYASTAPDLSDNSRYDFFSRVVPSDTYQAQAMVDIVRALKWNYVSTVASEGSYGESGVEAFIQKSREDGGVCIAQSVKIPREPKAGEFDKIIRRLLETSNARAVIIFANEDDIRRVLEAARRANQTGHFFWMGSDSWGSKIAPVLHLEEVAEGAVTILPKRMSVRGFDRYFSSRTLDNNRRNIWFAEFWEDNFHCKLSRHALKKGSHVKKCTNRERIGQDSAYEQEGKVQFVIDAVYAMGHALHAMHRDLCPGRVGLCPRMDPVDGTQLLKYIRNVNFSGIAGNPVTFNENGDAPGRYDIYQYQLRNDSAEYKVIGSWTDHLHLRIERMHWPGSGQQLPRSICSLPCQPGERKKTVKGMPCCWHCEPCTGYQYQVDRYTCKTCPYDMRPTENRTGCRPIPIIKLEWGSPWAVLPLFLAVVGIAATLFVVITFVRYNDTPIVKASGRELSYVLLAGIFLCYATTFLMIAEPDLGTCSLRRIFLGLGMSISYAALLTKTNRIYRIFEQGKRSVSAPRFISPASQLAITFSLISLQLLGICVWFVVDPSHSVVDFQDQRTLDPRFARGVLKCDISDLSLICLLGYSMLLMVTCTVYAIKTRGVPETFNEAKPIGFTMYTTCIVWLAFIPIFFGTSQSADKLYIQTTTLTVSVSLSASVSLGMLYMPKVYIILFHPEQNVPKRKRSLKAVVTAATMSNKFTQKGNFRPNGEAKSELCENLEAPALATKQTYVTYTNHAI

Structure (SMILES)	EC50	Eff. (%)
Cc1csc2c(=O)n(-c3c(F)cc(C#Cc4cccnc4)cc3F)c(=O)n(C)c12 [Example 28, 3-[2,6-Difluoro-4-[2-(3-pyridyl)ethynyl]phenyl]-1,7-dimethyl-thieno[3,2-d]pyrimidine-2,4-dione]	29 nM	86%
O=c1c2cccc3c2n(c(=O)n1-c1c(F)cc(C#Cc2ccccc2)cc1F)CC3 [Example 29, 2-(2,6-Difluoro-4-(phenylethynyl)phenyl)-5,6-dihydro-1H-pyrrolo[3,2,1-ij]quinazoline-1,3(2H)-dione]	52 nM	78%
O=c1c2cccc3c2n(c(=O)n1-c1c(F)cc(C#Cc2cccnc2)cc1F)CC3 [Example 30, 2-(2,6-Difluoro-4-(pyridin-3-ylethynyl)phenyl)-5,6-dihydro-1H-pyrrolo[3,2,1-ij]quinazoline-1,3(2H)-dione]	91 nM	89%
O=c1[nH]c2ncsc2c(=O)n1-c1c(F)cc(C#Cc2ccccc2)cc1F [Example 31, 6-[2,6-Difluoro-4-(2-phenylethynyl)phenyl]-4H-thiazolo[4,5-d]pyrimidine-5,7-dione]		85%
Cn1c(=O)n(-c2c(F)cc(C#Cc3ccccc3)cc2F)c(=O)c2scnc21 [Example 32, 6-[2,6-Difluoro-4-(2-phenylethynyl)phenyl]-4-methyl-thiazolo[4,5-d]pyrimidine-5,7-dione]	33 nM	104%
Cn1cc2c(n1)c(=O)n(-c1c(F)cc(C#Cc3ccccc3)cc1F)c(=O)n2C [Example 33, 6-[2,6-Difluoro-4-(2-phenylethynyl)phenyl]-2,4-dimethyl-pyrazolo[4,3-d]pyrimidine-5,7-dione]	47 nM	86%
Cn1ncc2c1c(=O)n(-c1c(F)cc(C#Cc3ccccc3)cc1F)c(=O)n2C [Example 34, 6-[2,6-Difluoro-4-(2-phenylethynyl)phenyl]-1,4-dimethyl-pyrazolo[4,3-d]pyrimidine-5,7-dione]	74 nM	85%
CC(C)n1c(=O)n(-c2c(F)cc(C#Cc3ccccc3)cc2F)c(=O)c2nn(C)cc21 [Example 35, 6-[2,6-Difluoro-4-(2-phenylethynyl)phenyl]-4-isopropyl-2-methyl-pyrazolo[4,3-d]pyrimidine-5,7-dione]	30 nM	89%
CC(C)n1c(=O)n(-c2c(F)cc(C#Cc3ccccc3)cc2F)c(=O)c2c1cnn2C [Example 36, 6-[2,6-Difluoro-4-(2-phenylethynyl)phenyl]-4-isopropyl-1-methyl-pyrazolo[4,3-d]pyrimidine-5,7-dione]	155 nM	89%
CC(C)n1c(=O)n(-c2c(F)cc(C#Cc3ccccc3)cc2F)c(=O)c2cccnc21 [Example 37, 3-[2,6-Difluoro-4-(2-phenylethynyl)phenyl]-1-isopropyl-pyrido[2,3-d]pyrimidine-2,4-dione]	88 nM	73%
Cc1ccnc2c(=O)n(-c3c(F)cc(C#Cc4ccccc4)cc3F)c(=O)n(C)c12 [Example 38, 3-[2,6-Difluoro-4-(2-phenylethynyl)phenyl]-1,8-dimethyl-pyrido[3,2-d]pyrimidine-2,4-dione]	108 nM	108%
Cn1c(=O)n(-c2c(F)cc(C#Cc3ccccc3)cc2F)c(=O)c2nsnc21 [Example 39, 6-[2,6-Difluoro-4-(2-phenylethynyl)phenyl]-4-methyl-[1,2,5]thiadiazolo[3,4-d]pyrimidine-5,7-dione]	17 nM	107%
CC(C)n1c(=O)n(-c2c(F)cc(C#Cc3ccccc3)cc2F)c(=O)c2nsnc21 [Example 40, 6-[2,6-Difluoro-4-(2-phenylethynyl)phenyl]-4-isopropyl-[1,2,5]thiadiazolo[3,4-d]pyrimidine-5,7-dione]	23 nM	104%
Cc1cccc2c1c(=O)n(-c1ccc(C#Cc3ccccc3)cc1Cl)c(=O)n2C [Example 41, 3-[2-Chloro-4-(2-phenylethynyl)phenyl]-1,5-dimethyl-quinazoline-2,4-dione]	231 nM	98%
CC(C)n1c(=O)n(-c2c(F)cc(C#Cc3cccnc3)cc2Cl)c(=O)c2ccccc21 [Example 42, 3-[2-Chloro-6-fluoro-4-[2-(3-pyridyl)ethynyl]phenyl]-1-isopropyl-quinazoline-2,4-dione]	83 nM	80%
Cc1cccc2c(=O)n(-c3c(F)cc(C#Cc4cccnc4)cc3Cl)c(=O)n(C)c12 [Example 43, 3-[2-Chloro-6-fluoro-4-[2-(3-pyridyl)ethynyl]phenyl]-1,8-dimethyl-quinazoline-2,4-dione]	74 nM	107%
Cn1c(=O)n(-c2ncc(C#Cc3ccccc3)cc2Cl)c(=O)c2ccccc21 [Example 44, 3-[3-Chloro-5-(2-phenylethynyl)-2-pyridyl]-1-methyl-quinazoline-2,4-dione]	372 nM	180%
CC(C)n1c(=O)n(-c2ncc(C#Cc3ccccc3)cc2Cl)c(=O)c2ccccc21 [Example 45, 3-[3-Chloro-5-(2-phenylethynyl)-2-pyridyl]-1-isopropyl-quinazoline-2,4-dione]	137 nM	92%
Cc1cccc2c(=O)n(-c3ncc(C#Cc4ccccc4)cc3Cl)c(=O)n(C)c12 [Example 46, 3-[3-Chloro-5-(2-phenylethynyl)-2-pyridyl]-1,8-dimethyl-quinazoline-2,4-dione]	141 nM	113%
O=c1c2cccc3c2n(c(=O)n1-c1ncc(C#Cc2ccccc2)cc1Cl)CC3 [Example 47, 2-(3-Chloro-5-(phenylethynyl)pyridin-2-yl)-5,6-dihydro-1H-pyrrolo[3,2,1-ij]quinazoline-1,3(2H)-dione]	187 nM	110%
Cn1c(=O)n(-c2ncc(C#Cc3ccccc3)cc2C(F)(F)F)c(=O)c2ccccc21 [Example 48, 1-Methyl-3-[5-(2-phenylethynyl)-3-(trifluoromethyl)-2-pyridyl]quinazoline-2,4-dione]	175 nM	95%
Cc1cccc2c(=O)n(-c3ncc(C#Cc4ccccc4)cc3F)c(=O)n(C)c12 [Example 49, 3-[3-Fluoro-5-(2-phenylethynyl)-2-pyridyl]-1,8-dimethyl-quinazoline-2,4-dione]	302 nM	111%
COCCn1c(=O)n(-c2ccc(C#Cc3ccccc3)cc2Cl)c(=O)c2ccccc21 [Example 50, 3-[2-Chloro-4-(2-phenylethynyl)phenyl]-1-(2-methoxyethyl)quinazoline-2,4-dione]	499 nM	110%
Cn1c(=O)n(-c2ccc(C#Cc3ccccc3)cc2Cl)c(=O)c2sc(N3CCOCC3)nc21 [Example 51, 6-[2-Chloro-4-(2-phenylethynyl)phenyl]-4-methyl-2-morpholino-thiazolo[4,5-d]pyrimidine-5,7-dione]	164 nM	127%
Cn1c(=O)n(-c2ccc(C#Cc3ccccc3)cc2Cl)c(=O)c2scnc21 [Example 52, 6-(2-Chloro-4-phenylethynyl-phenyl)-4-methyl-4H-thiazolo[4,5-d]pyrimidine-5,7-dione]	200 nM	110%
O=c1c2ccccc2n(C2CCC2)c(=O)n1-c1ccc(C#Cc2ccccc2)cc1Cl [Example 53, 3-[2-Chloro-4-(2-phenylethynyl)phenyl]-1-cyclobutyl-quinazoline-2,4-dione]	102 nM	123%
